Data reported in ChEMBL document CHEMBL2150930, “Design, synthesis and pharmacological evaluation of novel tacrine-caffeic acid hybrids as multi-targeted compounds against Alzheimer's disease” (Bioorg Med Chem Lett, 2012).
Active and inactive are the calls of the source. No cut-off for these calls is given here.

Legend:
HT-22 [1] = assay: Cytotoxicity against mouse HT22 cells at 100 uM after 30 mins by LDH release assay; assay type: cell-based; conditions: ht-22, 0.5 h
[2] = test system: Radical scavenging activity
Description: Antioxidant activity of the compound assessed as DPPH radical scavenging activity after 60 mins

Acetylcholinesterase = Acetylcholinesterase (Electrophorus electricus, UniProt O42275); assay: Inhibition of electric eel AChE using […] as substrate preincubated for 20 mins by Ellman's method
Chain of Acetylcholinesterase (O42275 whole entry): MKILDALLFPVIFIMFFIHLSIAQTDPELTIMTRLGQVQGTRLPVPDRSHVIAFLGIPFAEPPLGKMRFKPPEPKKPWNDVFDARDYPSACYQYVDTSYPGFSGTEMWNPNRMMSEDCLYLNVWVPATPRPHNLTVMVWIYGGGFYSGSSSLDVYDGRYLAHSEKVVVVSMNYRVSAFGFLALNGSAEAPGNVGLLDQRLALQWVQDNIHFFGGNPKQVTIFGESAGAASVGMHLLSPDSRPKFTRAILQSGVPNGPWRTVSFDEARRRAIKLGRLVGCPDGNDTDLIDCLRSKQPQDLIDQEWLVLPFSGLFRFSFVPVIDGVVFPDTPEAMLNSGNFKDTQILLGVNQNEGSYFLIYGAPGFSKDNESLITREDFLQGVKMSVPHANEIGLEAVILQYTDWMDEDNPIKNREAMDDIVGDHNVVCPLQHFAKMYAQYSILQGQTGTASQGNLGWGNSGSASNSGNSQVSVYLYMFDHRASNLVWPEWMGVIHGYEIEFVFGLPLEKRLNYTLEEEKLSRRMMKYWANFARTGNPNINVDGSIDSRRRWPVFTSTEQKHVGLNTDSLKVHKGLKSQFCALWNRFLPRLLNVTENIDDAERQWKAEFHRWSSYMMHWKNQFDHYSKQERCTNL

HT-22 [3] = assay: Neuroprotective activity in mouse HT22 cells assessed as protection against H2O2-induced cell death at 3 to 30 uM preincubated for 30 mins prior to H2O2 challenge measured after 24 hrs by MTT assay; assay type: functional, cell-based
Cholinesterase = Cholinesterase (Equus caballus, UniProt P81908)
Chain of Cholinesterase (P81908 whole entry): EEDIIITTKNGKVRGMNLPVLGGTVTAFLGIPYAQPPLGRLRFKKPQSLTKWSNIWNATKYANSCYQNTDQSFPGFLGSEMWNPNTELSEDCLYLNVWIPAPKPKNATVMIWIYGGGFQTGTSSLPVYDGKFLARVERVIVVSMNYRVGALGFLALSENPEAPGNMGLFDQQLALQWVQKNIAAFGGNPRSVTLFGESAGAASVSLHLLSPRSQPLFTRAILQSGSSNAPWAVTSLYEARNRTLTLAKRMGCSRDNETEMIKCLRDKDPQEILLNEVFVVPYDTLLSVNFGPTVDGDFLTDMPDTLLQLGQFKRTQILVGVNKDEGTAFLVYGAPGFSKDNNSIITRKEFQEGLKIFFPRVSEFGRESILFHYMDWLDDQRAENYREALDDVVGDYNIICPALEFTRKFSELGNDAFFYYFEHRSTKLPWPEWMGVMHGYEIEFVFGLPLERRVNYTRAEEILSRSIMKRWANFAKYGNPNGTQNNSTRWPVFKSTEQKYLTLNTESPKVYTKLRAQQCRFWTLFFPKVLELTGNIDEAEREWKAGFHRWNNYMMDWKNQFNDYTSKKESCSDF
Description: Inhibition of horse serum BuChE using butyrylthiocholine iodide as substrate preincubated for 20 mins by Ellman's method

HT-22 [4] = assay: Cytotoxicity against mouse HT22 cells assessed as cell viability at 30 uM after 24 hrs by MTT assay; assay type: cell-based; conditions: ht-22, 24 h
HT-22 [5] = assay: […] against mouse HT22 cells at 100 uM after 30 mins by LDH release assay; assay type: cell-based; conditions: ht-22, 0.5 h
[6] = biological target: Acetylcholinesterase (Electrophorus electricus) (UniProt O42275); assay: Mixed type inhibition of electric eel AChE using […] as substrate by Lineweaver-Burk plot analysis
Chain of Acetylcholinesterase (Electrophorus electricus) (O42275 24-633 limits assumed): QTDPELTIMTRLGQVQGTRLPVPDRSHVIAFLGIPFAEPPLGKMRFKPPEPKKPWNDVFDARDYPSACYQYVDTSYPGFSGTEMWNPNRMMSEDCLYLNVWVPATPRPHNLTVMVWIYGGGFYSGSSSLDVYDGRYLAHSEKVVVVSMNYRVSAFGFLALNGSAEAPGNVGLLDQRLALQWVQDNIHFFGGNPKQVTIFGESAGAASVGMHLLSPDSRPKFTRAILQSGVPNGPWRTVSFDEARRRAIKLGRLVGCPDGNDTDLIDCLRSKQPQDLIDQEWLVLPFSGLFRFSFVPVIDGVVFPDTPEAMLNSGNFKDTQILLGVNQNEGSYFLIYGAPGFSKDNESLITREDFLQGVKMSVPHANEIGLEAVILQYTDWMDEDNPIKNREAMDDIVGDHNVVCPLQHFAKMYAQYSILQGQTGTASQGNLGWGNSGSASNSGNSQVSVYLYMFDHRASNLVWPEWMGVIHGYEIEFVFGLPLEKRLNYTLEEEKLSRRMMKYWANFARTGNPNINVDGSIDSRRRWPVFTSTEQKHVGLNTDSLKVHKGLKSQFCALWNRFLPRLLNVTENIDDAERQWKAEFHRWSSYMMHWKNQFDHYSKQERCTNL

[7] = Antioxidant activity against Cu2+-mediated ROS formation in HEPES buffer at pH 7.4 assessed as compound-Cu2+ complex formation at 40 uM after 5 mins by UV-vis spectrophotometric analysis; assay type: functional

Row | SMILES | Activity (HT-22 [1]) | IC50 [2] [µM] | IC50 (Acetylcholinesterase) [µM] | Activity (HT-22 [3]) | IC50 (Cholinesterase) [µM] | Activity (HT-22 [4]) | Activity (HT-22 [5]) | inhibition [6] | Activity [7]
1 | O=C(/C=C/c1ccc(O)c(O)c1)NCCCCCCNc1c2c(nc3cc(Cl)ccc13)CCCC2 | Non-toxic | 4.7 | 6.3 | Active | 3.8 | Toxic |  |  | 
2 | O=C(/C=C/c1ccc(O)c(O)c1)NCCNc1c2c(nc3ccccc13)CCCC2 |  | 14.1 | 1.8 |  | 2.3 |  |  |  | 
3 | O=C(/C=C/c1ccc(O)c(O)c1)NCCCNc1c2c(nc3cc(Cl)ccc13)CCCC2 | Non-toxic | 4.8 | 0.3 | Active | 29.5 | Toxic | Toxic | Active | Active
4 | O=C(/C=C/c1ccc(O)c(O)c1)NCCNc1c2c(nc3cc(Cl)ccc13)CCCC2 |  | 9.7 | 1 | Active | 5.5 |  |  |  | 
5 | O=C(/C=C/c1ccc(O)c(O)c1)NCCCCCCNc1c2c(nc3ccccc13)CCCC2 |  | 10.4 | 1.9 |  | 3.9 |  |  |  | 
6 | O=C(/C=C/c1ccc(O)c(O)c1)NCCCNc1c2c(nc3ccccc13)CCCC2 |  | 11.1 | 0.0088 |  | 0.0837 |  |  |  | 
